“Also recorded” adds a separate entry of the source. Where two headings read alike, the source gives them in different places.
Legend:
[1] = test system: PHA-induced T cell blasts; experiment: Ca2+ signaling in PHA T cell blasts; type: cell-based, human
Description: Ca^2+ responses were measured using indo-1 (Molecular Probes, Eugene, Oreg.) and a model 50 HH/2150 flow cytometer (Ortho, Westwood, Mass.) as previously described (P. S. Rabinovitch et al., J. Immunol. 137:952-961 (1986)). The histograms were analyzed by programs (Cicero, Cytomation Inc., Ft. Collins, Colo.) that calculate the mean indo-1 violet/blue fluorescence ratio versus time. There are 100 data points on the X (time) axis for all flow cytometric data.
In the experiments shown in FIG. 25, human PHA-induced T cell blasts were treated overnight with the indicated concentrations of BMLOV. In Panel A, the baseline level of intracellular free Ca^2+ ([Ca^2+ ]i) was established for 1 min, and then the cells were treated with biotinylated anti-CD3 mAb (G19-4). After 5 min avidin was added (gap in the trace) to cross-link the antibody. In Panel B, assays were performed as in Panel A, but in the presence of 5 mM EGTA. […] In the experiments shown in FIG. 26, cells were treated 16 h with BMLOV and then stimulated with anti-CD3 mAb G19-4 for 5 min. Cells were then washed and resuspended in fresh media at equal concentrations of BMLOV at 37° C. Cells were then harvested and lysed at times following the initiation of CD3 stimulation as indicated. Antibody binding in immunoblots was detected by ECL.

Jurkat T cells = experiment: TUNEL analysis of fragmented DNA by flow cytometry; type: cell-based, human; settings: 25 or 50 μM BMLOV, 48 h
Description: (§1) TUNEL (TdT-mediated dUTP-biotin nick end labeling) staining for the in situ detection of fragmented DNA was as previously described (Y. Gavrieli et al., J. Cell Biol. 119:493-501 (1992)) with modification to permit detection by flow cytometry. Cells (2×106) were washed with PBS and resuspended in 4% formaldehyde in PBS at 4° C. for 4 h for fixation. Cells were rinsed in PBS and permeabilized by resuspension in 70% ethanol in PBS for 1 h at 4° C. Cells were rinsed with PBS, rinsed with TdT buffer (30 mM Tris-HCl, pH 7.2, 140 mM cacodylate, 1 mM cobalt chloride) and resuspended in 150 μl TdT buffer. Biotin-dUTP (SIGMA, St. Louis, Mo.) was added to 15 μM and terminal deoxynucleotidyl transferase (TdT, Boehringer Mannheim) was added to 0.6 U/μl. DNA synthesis was for 1 h at 37° C. and was stopped by the addition of 1 ml cold PBS. Cells were rinsed twice with PBS and resuspended in 500 μl of PBS containing 5 μg of fluorescein-avidin at 4° C. for 16 h. Cells were washed twice in PBS and resuspended in 400 μl of PBS for flow cytometry. Cells were analyzed using a Becton-Dickinson FACScan flow cytometer and LYSIS analysis software.
(§2) The extent of DNA fragmentation and the cell type selective activity was quantitated by TUNEL analysis (Y. Gavrieli et al., (1992), supra); FIG. 28). […]

Ramos B cells = experiment: TUNEL analysis of fragmented DNA by flow cytometry; type: cell-based, human; settings: 25 or 50 μM BMLOV, 48 h
Description: as §1, §2

[2] = test system: Ramos B cell lymphoma cells; experiment: Apoptosis: DNA fragmentation on agarose gel; type: cell-based, human; settings: 10 μM, by 48 hours
Description: (§3) For these experiments, cell samples (2×10^6 cells) were centrifuged at 200× g, the media removed by aspiration and the cell pellets stored at -70° C. until processing. Cell pellets were resuspended in 300 μl digestion buffer (100 mM NaCl, 10 mM Tris-HCl, pH 8.0, 25 mM EDTA, 0.5% SDS, 0.1 mg/ml protease K) and incubated for 12 hours at 50° C. DNase-free ribonuclease (5 μg) in 200 μl TE buffer (10 mM Tris-HCl, pH 7.5, 1 mM EDTA) was added to each sample followed by incubation for 2 hours at 37° C. DNA was then extracted once with phenol:chloroform, once with chloroform and then precipitated with 0.5 volumes of ammonium acetate and 2 volumes of ethanol at -70° C. for 12 hours. The precipitated DNA was resuspended in 200 μl TE buffer and quantitated by absorbance at 260 nanometers. The DNA (15 μg) was applied to a 1.3% agarose gel in TBE buffer (89 mM Tris base, 89 mM boric acid, 2 mM EDTA) resolved at 20 mA constant current and the DNA was visualized by staining with ethidium bromide. Fragmented DNA due to apoptosis appeared as a ladder of bands on the gel.

HL60 = experiment: Apoptosis: DNA fragmentation on agarose gel; type: cell-based, human; settings: dose dependent
Description: as §3

Jurkat [3] = experiment: Apoptosis: DNA fragmentation on agarose gel; type: cell-based, human
Description: as §3

CEM = experiment: Apoptosis: DNA fragmentation on agarose gel; type: cell-based, human
Description: as §3

Jurkat [4] = type: cell-based, human
Excerpt: The extent to which the T cells were being killed by BMLOV treatment relative to the Ramos B cells was therefore examined. […] The percentage of cells in each quadrant is indicated. The lower right quadrant contains the viable cells.

i.p. B16 murine melanoma = type: in vivo
Description: The cumulative dose MTD of 54 mg/kg was similar to the 60 mg/kg cumulative MTD observed in the last M109 experiment.

[5] = test system: L1210 murine T cell leukemia cells; experiment: Apoptosis: DNA fragmentation on agarose gel; type: cell-based; settings: pV(phen), FIG. 18
Description: as §3
L1210 murine T cell leukemia cells were treated with the indicated concentrations of pV(phen) for the indicated times and the DNA was examined by gel electrophoresis as in Example 3.

| Structure (SMILES) | Ca2+ signals from crosslinking CD3 alone or with CD2 and CD4 ([1]; 25-50 μM BMLOV) | basal calcium levels ([1]; 50 to 100 μM BMLOV, fifteen hours) | effect on CD28 Ca2+ signals ([1]; PHA T cell blasts) | Ca2+ signaling in T cells ([1]; anti-CD3 cross-linking, BMLOV overnight (25 μM elsewhere in the source)) | DNA fragmentation by TUNEL (Jurkat T cells) | DNA fragmentation by TUNEL (Ramos B cells) | induction of apoptosis (DNA fragmentation) [2] | induction of apoptosis (DNA fragmentation) (HL60) | induction of apoptosis (DNA fragmentation) (Jurkat [3]) | induction of apoptosis (DNA fragmentation) (CEM) | cells killed (Jurkat [4]; Jurkat, 10 μM pV(phen), three days) | cells killed (Jurkat [4]; human, jurkat cells, 48 h, 10 µM) [%] | Max. % T/C (i.p. B16 murine melanoma; Expt. 799, 6 mg/kg/inj (MTD reached), qd 1→9, ip) [%] | maximum tolerated dose (MTD) (i.p. B16 murine melanoma; mouse, in vivo, ip) [mg/kg per injection] | induction of apoptosis (DNA fragmentation) [5] |
| --- | --- | --- | --- | --- | --- | --- | --- | --- | --- | --- | --- | --- | --- | --- | --- |
| Cc1occc(=O)c1[O-].Cc1occc(=O)c1[O-].[O]=[V+2] [BMLOV, Bis(maltolato)oxovanadium (IV)] | prolong Ca^2+ signals | markedly enhance basal calcium levels | marked inhibition | detectably stimulated Ca^2+ signaling; also recorded: increased and prolonged | little labeling was observed | extensively induced in a dose dependent manner | induced apoptosis; also recorded: induced extensive DNA fragmentation | Apoptosis was also observed to be induced; also recorded: DNA fragmentation was also induced | apoptosis was not observed; also recorded: DNA fragmentation was not observed | apoptosis was not observed; also recorded: DNA fragmentation was not observed |  |  |  |  |  |
| [Na+].[O]=[V-]12([O][O]1)[O][O]2.c1cnc2c(c1)ccc1cccnc12 [pV(phen), sodium (1,10-phenanthroline) oxodiperoxovanadium (V)] |  |  |  |  |  |  |  |  |  |  | all the cells | 98 | 152 | 6 | fragmentation of DNA demonstrates apoptosis |

— patent US5877210A, “Phosphotyrosine phosphatase inhibitors or phosphotyrosine kinase activators for controlling cellular proliferation” (priority 1995, dated 1999)
